Results as given in ChEMBL document CHEMBL5705896 (ACS Chem Biol, 2013).
Activity calls are given as the source filed them. The rule behind the calls is not given here.

Experiments:
[1] = target: 5-hydroxytryptamine receptor 1E (Homo sapiens) (UniProt P28566); assay: Inhibition of 5-HT1E receptor (unknown origin) at 10 uM by radioligand binding assay relative to control
[2] = target: Muscarinic acetylcholine receptor M4 (Homo sapiens) (UniProt P08173); assay: Inhibition of M4 receptor (unknown origin) at 10 uM by radioligand binding assay relative to control
[3] = target: Ephrin type-B receptor 4 (Homo sapiens) (UniProt P54760); assay: Inhibition of human cytoplasmic domain N-terminal GST tagged EPHB4 (577 to 987 end residues) expressed in baculovirus expression system using Blk/lyntide as substrate at 10 uM by mobility shift assay relative to control
Ephrin type-B receptor 4 (Homo sapiens), sequence (P54760 whole entry, the tested form may be a part): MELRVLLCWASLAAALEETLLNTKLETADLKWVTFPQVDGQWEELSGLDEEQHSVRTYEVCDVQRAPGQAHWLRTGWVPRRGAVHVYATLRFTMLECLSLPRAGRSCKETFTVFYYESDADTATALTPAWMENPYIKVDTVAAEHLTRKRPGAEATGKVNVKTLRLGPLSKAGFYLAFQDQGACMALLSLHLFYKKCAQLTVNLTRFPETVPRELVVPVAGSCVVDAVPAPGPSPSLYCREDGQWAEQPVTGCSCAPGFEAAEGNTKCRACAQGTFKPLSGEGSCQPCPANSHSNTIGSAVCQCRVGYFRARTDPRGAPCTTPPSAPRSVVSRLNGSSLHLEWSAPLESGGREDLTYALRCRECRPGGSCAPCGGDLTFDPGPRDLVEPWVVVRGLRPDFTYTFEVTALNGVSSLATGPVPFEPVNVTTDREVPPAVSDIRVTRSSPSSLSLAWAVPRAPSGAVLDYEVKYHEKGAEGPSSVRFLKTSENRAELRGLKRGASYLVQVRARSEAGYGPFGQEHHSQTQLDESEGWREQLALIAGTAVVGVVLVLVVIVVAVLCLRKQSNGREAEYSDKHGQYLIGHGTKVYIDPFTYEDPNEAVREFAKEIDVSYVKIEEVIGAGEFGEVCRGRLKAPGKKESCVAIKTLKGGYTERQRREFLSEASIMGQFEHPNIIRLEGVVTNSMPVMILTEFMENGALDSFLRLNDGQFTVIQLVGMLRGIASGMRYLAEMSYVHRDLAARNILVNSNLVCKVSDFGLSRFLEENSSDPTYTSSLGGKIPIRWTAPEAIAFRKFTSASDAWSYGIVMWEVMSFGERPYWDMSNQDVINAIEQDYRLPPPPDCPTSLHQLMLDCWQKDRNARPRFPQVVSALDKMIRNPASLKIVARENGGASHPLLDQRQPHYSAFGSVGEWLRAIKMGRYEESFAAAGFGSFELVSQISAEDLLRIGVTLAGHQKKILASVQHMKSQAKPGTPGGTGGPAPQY

[4] = target: Muscarinic acetylcholine receptor M2 (Homo sapiens) (UniProt P08172); assay: Inhibition of M2 receptor (unknown origin) at 10 uM by radioligand binding assay relative to control
[5] = target: 3-phosphoinositide-dependent protein kinase 1 (Homo sapiens) (UniProt O15530); assay: Inhibition of full length human N-terminal GST tagged PDK1 (1 to 556 end residues) expressed in baculovirus expression system using T308tide as substrate at 10 uM by mobility shift assay relative to control
3-phosphoinositide-dependent protein kinase 1 (Homo sapiens), sequence (O15530 whole entry, looked up): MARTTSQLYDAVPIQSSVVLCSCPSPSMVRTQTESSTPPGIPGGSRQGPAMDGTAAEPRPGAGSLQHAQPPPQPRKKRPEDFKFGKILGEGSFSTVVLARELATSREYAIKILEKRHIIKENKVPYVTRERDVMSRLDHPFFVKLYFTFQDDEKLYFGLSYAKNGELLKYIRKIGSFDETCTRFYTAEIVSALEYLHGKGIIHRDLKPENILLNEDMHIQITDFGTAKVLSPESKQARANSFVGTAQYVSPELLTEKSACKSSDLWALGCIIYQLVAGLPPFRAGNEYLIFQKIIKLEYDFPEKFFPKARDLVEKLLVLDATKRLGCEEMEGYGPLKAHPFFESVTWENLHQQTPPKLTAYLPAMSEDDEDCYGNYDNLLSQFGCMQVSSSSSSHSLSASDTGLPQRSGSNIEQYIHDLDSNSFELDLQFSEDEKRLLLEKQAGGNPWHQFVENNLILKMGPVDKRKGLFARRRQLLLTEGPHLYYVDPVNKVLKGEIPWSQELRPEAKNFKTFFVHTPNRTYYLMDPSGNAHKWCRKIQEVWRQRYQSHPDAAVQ

[6] = target: Serine/threonine-protein kinase Chk1 (Homo sapiens) (UniProt O14757); assay: Inhibition of full length human N-terminal GST tagged CHK1 (1 to 476 end residues) expressed in baculovirus expression system using chk-tide as substrate at 10 uM by mobility shift assay relative to control
[7] = target: Interleukin-1 receptor-associated kinase 4 (Homo sapiens) (UniProt Q9NWZ3); assay: Inhibition of full length human N-terminal GST tagged IRAK4 (1 to 460 end residues) expressed in baculovirus expression system using IRAK1 as substrate at 10 uM by mobility shift assay relative to control
[8] = target: Sigma intracellular receptor 2 (Homo sapiens, UniProt Q5BJF2); assay: Inhibition of Sigma2 receptor (unknown origin) at 10 uM by radioligand binding assay relative to control
Sigma intracellular receptor 2, sequence (Q5BJF2 whole entry): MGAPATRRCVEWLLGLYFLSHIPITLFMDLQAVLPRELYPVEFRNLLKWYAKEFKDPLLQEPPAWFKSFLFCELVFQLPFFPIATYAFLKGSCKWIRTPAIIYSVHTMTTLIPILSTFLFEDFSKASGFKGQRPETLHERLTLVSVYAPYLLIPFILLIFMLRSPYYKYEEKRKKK

[9] = target: D(2) dopamine receptor (Homo sapiens) (UniProt P14416); assay: Inhibition of dopamine D2 receptor (unknown origin) at 10 uM by radioligand binding assay relative to control
[10] = target: 5-hydroxytryptamine receptor 1B (Homo sapiens) (UniProt P28222); assay: Inhibition of 5-HT1B receptor (unknown origin) at 10 uM by radioligand binding assay relative to control
5-hydroxytryptamine receptor 1B (Homo sapiens), sequence (P28222 whole entry): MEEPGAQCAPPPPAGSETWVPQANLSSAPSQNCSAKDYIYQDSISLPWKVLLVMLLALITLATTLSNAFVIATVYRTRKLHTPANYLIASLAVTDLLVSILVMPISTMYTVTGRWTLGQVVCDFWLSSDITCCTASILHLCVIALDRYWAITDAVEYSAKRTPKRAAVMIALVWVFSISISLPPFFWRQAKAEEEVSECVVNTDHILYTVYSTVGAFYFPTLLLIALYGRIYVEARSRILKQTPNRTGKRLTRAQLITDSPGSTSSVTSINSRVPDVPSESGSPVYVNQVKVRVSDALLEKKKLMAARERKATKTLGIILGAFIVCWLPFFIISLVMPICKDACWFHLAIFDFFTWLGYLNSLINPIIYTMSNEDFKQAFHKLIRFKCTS

[11] = target: Histamine H1 receptor (Homo sapiens) (UniProt P35367); assay: Inhibition of H1 receptor (unknown origin) at 10 uM by radioligand binding assay relative to control
Histamine H3 receptor = Histamine H3 receptor (Homo sapiens, UniProt Q9Y5N1)
Description: Binding affinity to H3 receptor (unknown origin) assessed as inhibition constant

[12] = target: 5-hydroxytryptamine receptor 2B (Homo sapiens) (UniProt P41595); assay: Inhibition of 5-HT2B receptor (unknown origin) at 10 uM by radioligand binding assay relative to control
5-hydroxytryptamine receptor 2B (Homo sapiens), sequence (P41595 whole entry): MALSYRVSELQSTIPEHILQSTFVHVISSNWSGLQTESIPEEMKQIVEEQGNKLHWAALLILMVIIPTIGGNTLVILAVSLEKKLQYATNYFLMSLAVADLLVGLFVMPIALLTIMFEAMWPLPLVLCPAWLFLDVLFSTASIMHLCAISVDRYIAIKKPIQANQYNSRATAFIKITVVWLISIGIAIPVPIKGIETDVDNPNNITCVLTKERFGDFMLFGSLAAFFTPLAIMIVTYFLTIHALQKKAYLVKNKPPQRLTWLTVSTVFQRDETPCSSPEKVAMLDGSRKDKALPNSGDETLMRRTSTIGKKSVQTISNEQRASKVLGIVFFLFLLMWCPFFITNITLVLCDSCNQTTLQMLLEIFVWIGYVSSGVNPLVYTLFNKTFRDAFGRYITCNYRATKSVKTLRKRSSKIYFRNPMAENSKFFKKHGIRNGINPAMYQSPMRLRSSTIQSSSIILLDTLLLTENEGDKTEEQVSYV

[13] = target: Tyrosine-protein kinase Lck (Homo sapiens) (UniProt P06239); assay: Inhibition of full length human N-terminal GST tagged LCK (1 to 509 end residues) expressed in baculovirus expression system using Srctide as substrate at 10 uM by mobility shift assay relative to control
Tyrosine-protein kinase Lck (Homo sapiens), sequence (P06239 2-509 limits assumed): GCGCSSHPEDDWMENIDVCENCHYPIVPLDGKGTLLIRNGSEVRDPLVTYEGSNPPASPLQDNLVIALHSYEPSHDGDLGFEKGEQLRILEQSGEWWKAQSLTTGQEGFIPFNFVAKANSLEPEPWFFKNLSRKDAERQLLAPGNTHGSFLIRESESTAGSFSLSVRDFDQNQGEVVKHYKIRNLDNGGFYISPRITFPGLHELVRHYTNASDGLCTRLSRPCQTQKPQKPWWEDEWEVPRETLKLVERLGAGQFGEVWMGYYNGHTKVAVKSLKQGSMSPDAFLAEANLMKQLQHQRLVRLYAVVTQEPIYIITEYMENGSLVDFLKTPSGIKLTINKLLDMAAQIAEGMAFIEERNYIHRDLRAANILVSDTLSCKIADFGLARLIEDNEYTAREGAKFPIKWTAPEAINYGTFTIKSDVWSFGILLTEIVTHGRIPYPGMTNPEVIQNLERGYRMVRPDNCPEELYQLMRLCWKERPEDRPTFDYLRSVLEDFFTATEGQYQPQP

[14] = target: Tyrosine-protein kinase JAK3 (Homo sapiens) (UniProt P52333); assay: Inhibition of human catalytic domain N-terminal his tagged JAK3 (795 to 1124 end residues) expressed in baculovirus expression system using Srctide as substrate at 10 uM by mobility shift assay relative to control
[15] = target: 5-hydroxytryptamine receptor 7 (Homo sapiens) (UniProt P34969); assay: Inhibition of 5-HT7 receptor (unknown origin) at 10 uM by radioligand binding assay relative to control
[16] = target: 5-hydroxytryptamine receptor 2C (Homo sapiens) (UniProt P28335); assay: Inhibition of 5-HT2C receptor (unknown origin) at 10 uM by radioligand binding assay relative to control
[17] = target: 5-hydroxytryptamine receptor 2A (Homo sapiens) (UniProt P28223); assay: Inhibition of 5-HT2A receptor (unknown origin) at 10 uM by radioligand binding assay relative to control
5-hydroxytryptamine receptor 2A (Homo sapiens), sequence (P28223 whole entry): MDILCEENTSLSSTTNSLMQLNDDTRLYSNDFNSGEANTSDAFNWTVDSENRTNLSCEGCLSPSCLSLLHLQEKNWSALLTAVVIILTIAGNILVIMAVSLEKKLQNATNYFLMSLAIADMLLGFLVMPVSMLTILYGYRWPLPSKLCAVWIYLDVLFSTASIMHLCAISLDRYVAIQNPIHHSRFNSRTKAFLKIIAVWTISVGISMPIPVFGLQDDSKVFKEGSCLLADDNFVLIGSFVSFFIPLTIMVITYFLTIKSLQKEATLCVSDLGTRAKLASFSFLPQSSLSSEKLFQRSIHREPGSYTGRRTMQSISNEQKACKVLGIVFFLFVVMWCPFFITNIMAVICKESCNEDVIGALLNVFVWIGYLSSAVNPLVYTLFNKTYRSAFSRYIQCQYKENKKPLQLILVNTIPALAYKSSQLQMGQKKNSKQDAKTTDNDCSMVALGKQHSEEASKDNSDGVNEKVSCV

[18] = target: Sigma non-opioid intracellular receptor 1 (Homo sapiens) (UniProt Q99720); assay: Inhibition of Sigma1 receptor (unknown origin) at 10 uM by radioligand binding assay relative to control
Sigma non-opioid intracellular receptor 1 (Homo sapiens), sequence (Q99720 whole entry): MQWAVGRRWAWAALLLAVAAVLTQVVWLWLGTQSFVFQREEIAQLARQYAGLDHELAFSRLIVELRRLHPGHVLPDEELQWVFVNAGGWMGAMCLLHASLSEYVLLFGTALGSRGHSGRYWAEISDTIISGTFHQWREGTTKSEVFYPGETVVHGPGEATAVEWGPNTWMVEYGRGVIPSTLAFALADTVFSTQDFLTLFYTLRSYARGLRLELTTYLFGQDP

[19] = target: Muscarinic acetylcholine receptor M1 (Homo sapiens) (UniProt P11229); assay: Inhibition of M1 receptor (unknown origin) at 10 uM by radioligand binding assay relative to control
[20] = target: 5-hydroxytryptamine receptor 1D (Homo sapiens) (UniProt P28221); assay: Inhibition of 5-HT1D receptor (unknown origin) at 10 uM by radioligand binding assay relative to control
5-hydroxytryptamine receptor 1D (Homo sapiens), sequence (P28221 whole entry): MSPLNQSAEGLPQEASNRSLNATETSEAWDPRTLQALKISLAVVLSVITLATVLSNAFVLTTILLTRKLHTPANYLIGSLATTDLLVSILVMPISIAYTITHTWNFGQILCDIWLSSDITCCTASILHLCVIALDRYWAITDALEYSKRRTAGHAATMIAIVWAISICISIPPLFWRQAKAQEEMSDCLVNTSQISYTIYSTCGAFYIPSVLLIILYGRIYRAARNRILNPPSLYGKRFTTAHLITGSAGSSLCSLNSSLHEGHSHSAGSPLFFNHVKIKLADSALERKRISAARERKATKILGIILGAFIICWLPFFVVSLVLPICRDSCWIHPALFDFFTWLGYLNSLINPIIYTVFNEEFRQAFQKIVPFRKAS

DB [21] = assay: Antiproliferative activity against human DB cells assessed as reduction in cell viability at 100 to 5000 nM measured after 3 days by cell proliferation assay; format: functional, cell-based; conditions: dose 100-5000 nM, time 3.0 day
[22] = target: Protein arginine N-methyltransferase 5 (Homo sapiens, UniProt O14744); assay: Inhibition of PRMT5 (unknown origin) using [3H-SAM] as substrate incubated for 1 hr by scintillation proximity assay
[23] = target: Serine/threonine-protein kinase 4 (Homo sapiens) (UniProt Q13043); assay: Inhibition of full length human N-terminal GST tagged MST1 (1 to 487 end residues) expressed in baculovirus expression system using IRS1 as substrate at 10 uM by mobility shift assay relative to control
[24] = target: Beta-2 adrenergic receptor (Homo sapiens) (UniProt P07550); assay: Inhibition of Beta2 receptor (unknown origin) at 10 uM by radioligand binding assay relative to control
[25] = target: Alpha-2A adrenergic receptor (Homo sapiens) (UniProt P08913); assay: Inhibition of Alpha2A receptor (unknown origin) at 10 uM by radioligand binding assay relative to control
[26] = target: Histone-lysine N-methyltransferase EZH2 (Homo sapiens, UniProt Q15910, Y641F); assay: Inhibition of EZH2 Y641F mutant (unknown origin) using HMT as substrate incubated for 60 mins by luminescence based analysis
DB [27] = assay: Antiproliferative activity against human DB cells assessed as reduction in cell viability at 3000 nM measured after 8 days by cell proliferation assay; format: functional, cell-based; conditions: time 8.0 day
[28] = target: Lymphokine-activated killer T-cell-originated protein kinase (Homo sapiens) (UniProt Q96KB5); assay: Inhibition of full length human N-terminal GST tagged PBK (1 to 322 end residues) expressed in baculovirus expression system using histone H3 as substrate at 10 uM by mobility shift assay relative to control
[29] = target: Inhibitor of nuclear factor kappa-B kinase subunit beta (Homo sapiens) (UniProt O14920); assay: Inhibition of truncated human N-terminal his-tagged IKK beta (1 to 662 residues) expressed in baculovirus expression system using modified IkappaB-alpha derived peptide as substrate at 10 uM by mobility shift assay relative to control
Inhibitor of nuclear factor kappa-B kinase subunit beta (Homo sapiens), sequence (O14920 whole entry, the tested form may be a part): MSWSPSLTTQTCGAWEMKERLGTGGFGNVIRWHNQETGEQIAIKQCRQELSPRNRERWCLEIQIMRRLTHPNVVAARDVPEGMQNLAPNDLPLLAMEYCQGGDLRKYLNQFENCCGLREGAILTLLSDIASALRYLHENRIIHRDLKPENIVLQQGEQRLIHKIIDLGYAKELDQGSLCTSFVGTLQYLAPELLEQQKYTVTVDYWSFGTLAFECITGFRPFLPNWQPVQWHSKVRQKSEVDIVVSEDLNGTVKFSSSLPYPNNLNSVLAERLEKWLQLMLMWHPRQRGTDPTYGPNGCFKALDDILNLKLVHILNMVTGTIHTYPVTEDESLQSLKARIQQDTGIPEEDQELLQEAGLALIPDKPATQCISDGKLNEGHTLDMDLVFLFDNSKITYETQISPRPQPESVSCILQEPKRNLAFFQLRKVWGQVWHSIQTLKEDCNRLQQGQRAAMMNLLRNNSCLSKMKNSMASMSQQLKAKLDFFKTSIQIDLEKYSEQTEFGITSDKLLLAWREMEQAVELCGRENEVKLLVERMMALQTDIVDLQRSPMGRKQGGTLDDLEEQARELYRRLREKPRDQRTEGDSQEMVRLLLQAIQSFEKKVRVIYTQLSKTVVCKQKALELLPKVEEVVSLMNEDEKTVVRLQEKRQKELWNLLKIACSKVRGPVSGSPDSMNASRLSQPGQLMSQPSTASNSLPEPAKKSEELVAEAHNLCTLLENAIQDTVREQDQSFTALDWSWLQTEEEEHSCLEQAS

With `CCCc1cc(C)[nH]c(=O)c1CNC(=O)c1cc(-c2ccc(N3CCN(C(C)C)CC3)nc2)cc2c1cnn2C(C)C` the inhibition [1] was 2%, the inhibition [2] was 21% and the inhibition [3] was -6%. The inhibition [4] was 41%, the inhibition [5] was -6% and the inhibition [6] was -2%. It also gave an inhibition [7] of -7%, an inhibition [8] of 93% and an inhibition [9] of 9%. It also gave an inhibition [10] of 44%, an inhibition [11] of 16% and a Ki (Histamine H3 receptor) of 300 nM. It also gave an inhibition [12] of -9%, an inhibition [13] of 0% and an inhibition [14] of -8%. The inhibition [15] was -4%, the inhibition [16] was 22% and the inhibition [17] was 39%. It also gave an inhibition [18] of 57%, an inhibition [19] of 19% and an inhibition [20] of 50%. The Activity (DB [21]) was “inactive”, the IC50 [22] was greater than 100000 nM and the inhibition [23] was -5%. It also gave an inhibition [24] of 14%, an inhibition [25] of 14% and an IC50 [26] of less than 15 nM. The Activity (DB [27]) was “Active”, the inhibition [28] was -10% and the inhibition [29] was -3%.
